Reference: US11220524B2, “Selective inhibitors of protein arginine methyltransferase 5 (PRMT5)” (PRELUDE THERAPEUTICS, INCORPORATED, priority 2017, dated 2022)
Counter-ions that a name gives are not always drawn.

What was measured:
PRMT5/MEP50 complex = PRMT5/MEP50 complex (Homo sapiens (Human), UniProt O14744); assay: Biochemical assay: PRMT5/MEP50 methylation of histone H2A with 3H-SAM, filter plate scintillation; settings: histone H2A 5 μM, SAM 1 μM, enzyme 5 nM; read-out: PRMT5/MEP50 IC50
Protocol: Biochemical Assay Protocol
Compounds were solubilized, and 3-fold diluted in 100% DMSO. […] Standard reactions were performed in a total volume of […] assay buffer, with histone H2A (5 μM final) as substrate. To this was added the PRMT5/MEP50 complex diluted to provide a final assay concentration of 5 nM and the compounds were allowed to preincubate for 15 to 20 minutes at room temperature. The reaction was initiated by adding S-[3H-methyl]-adenosyl-L-methionine (PerkinElmer) to final concentration of 1 μM. Following a 60 minutes incubation at 30° C., the reaction was stopped by adding 100 μL of 20% TCA. Each reaction was spotted onto filter plate (MultiScreen FB Filter Plate, Millipore), and washed 5 times with PBS buffer, Scintillation fluid was added to the filter plate and read in a scintillation counter. IC50 values were determined by fitting the data to the standard 4 parameters with Hill Slope using GraphPad Prism software.

[1] = test system: Symmetric Di-Methyl Arginine (sDMA) in Granta-519 cells; assay: Western blot for symmetric di-methyl arginine (sDMA) marks in Granta cells, 3 days treatment; assay type: cell-based; settings: Homo sapiens; for IC50: 72 h, Granta-519 cell line, 3 days; for inhibition at 1 µM: Granta-519
Protocol: Cell Treatment and Western Blotting for Detecting Symmetric Di-Methyl Arginine (sDMA) and Histone H3R8 Dimethyl Symmetric (H3R8me2s) Marks
Initial compounds screening in A549 cells: Compounds were dissolved in DMSO to make 10 mM stock and further diluted to 0.1, and 1 mM. A549 cells were maintained in PRMI 1640 (Corning Cellgro, Catalog #: 10-040-CV) medium supplemented with 10% v/v FBS (GE Healthcare, Catalog #: SH30910.03). One day before experiment, 1.25×10^5 cells were seeded in 6 well plate in 3 mL medium and incubated overnight. The next day, medium was changed and 3 uL of compound solution was added (1:1,000 dilution, 0.1 and 1 uM final concentration; DMSO concentration: 0.1%), and incubated for 3 days. Cells incubated with DMSO was used as a vehicle control. Cells were washed once with PBS, trypsinized in 150 uL 0.25% Trypsin (Corning, Catalog #: 25-053-CI), neutralized with 1 mL complete medium, transferred to microcentrifuge tubes and collected. Cell pellet was then resuspended in 15 uL PBS, lysed in 4% SDS, and homogenized by passing through homogenizer column (Omega Biotek, Catalog #: HCR003). Total protein concentrations were determined by BCA assay (ThermoFisher Scientific, Catalog #: 23225). Lysates were mixed with 5× Laemmli buffer and boiled for 5 min. Forty ug of total protein was separated on SDS-PAGE gels (Bio-Rad, catalog #: 4568083, 4568043), transferred to PVDF membrane, blocked with 5% dry milk (Bio-Rad, Catalog #: 1706404) in TBS with 0.1% v/v Tween 20 (TBST) for 1 hour at room temperature (RT), and incubated with primary antibodies (sDMA: Cell signaling, Catalog #: 13222, 1:3,000; H3R8me2s: Epigentek, Catalog #: A-3706-100, 1:2,000; β-Actin: Abcam, Catalog #: ab8227, 1:10,000) in 5% dry milk in TBST at 4° C. for overnight. The next day, membranes were washed with TBST, 5×5 min, and incubated withhP conjugated seconded antibody (GE Healthcare; Catalog #: NA934-1ML; 1:5,000) for 2 hours at RT, followed by 5×5 min washes with TBST, and incubation with ECL substrates (Bio-Rad, Catalog #: 1705061, 1705062). Chemiluminescent signal was captured with FluoChem HD2 imager (Proteinsimple) and analyzed by ImageJ.
Cells incubated with DMSO was used as a vehicle control. Cells were harvested and subjected to western blot analysis as described above. SmD3me2s and H3R8me2s bands were quantified by ImageJ. Signals were normalized to β-Actin and DMSO control. IC50 values were calculated using Graphpad Prism.

Chain of PRMT5/MEP50 complex (O14744 whole entry): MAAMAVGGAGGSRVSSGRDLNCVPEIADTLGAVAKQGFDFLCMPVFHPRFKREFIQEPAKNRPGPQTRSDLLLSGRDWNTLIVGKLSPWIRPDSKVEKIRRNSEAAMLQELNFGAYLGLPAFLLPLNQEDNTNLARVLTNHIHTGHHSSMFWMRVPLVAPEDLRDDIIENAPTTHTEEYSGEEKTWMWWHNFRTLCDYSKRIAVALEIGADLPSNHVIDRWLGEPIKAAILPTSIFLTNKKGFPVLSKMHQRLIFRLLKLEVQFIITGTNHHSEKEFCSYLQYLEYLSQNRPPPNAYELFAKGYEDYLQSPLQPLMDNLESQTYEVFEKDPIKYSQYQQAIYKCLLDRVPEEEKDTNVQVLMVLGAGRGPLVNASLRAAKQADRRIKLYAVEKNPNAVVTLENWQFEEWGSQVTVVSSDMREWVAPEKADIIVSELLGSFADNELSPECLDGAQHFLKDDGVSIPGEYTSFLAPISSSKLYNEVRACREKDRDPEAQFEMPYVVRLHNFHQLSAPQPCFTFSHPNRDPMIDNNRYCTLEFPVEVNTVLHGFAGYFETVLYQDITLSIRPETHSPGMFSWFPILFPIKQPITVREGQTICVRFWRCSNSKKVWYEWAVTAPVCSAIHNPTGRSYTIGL
Chain of PRMT5/MEP50 complex (Q9BQA1 whole entry partner): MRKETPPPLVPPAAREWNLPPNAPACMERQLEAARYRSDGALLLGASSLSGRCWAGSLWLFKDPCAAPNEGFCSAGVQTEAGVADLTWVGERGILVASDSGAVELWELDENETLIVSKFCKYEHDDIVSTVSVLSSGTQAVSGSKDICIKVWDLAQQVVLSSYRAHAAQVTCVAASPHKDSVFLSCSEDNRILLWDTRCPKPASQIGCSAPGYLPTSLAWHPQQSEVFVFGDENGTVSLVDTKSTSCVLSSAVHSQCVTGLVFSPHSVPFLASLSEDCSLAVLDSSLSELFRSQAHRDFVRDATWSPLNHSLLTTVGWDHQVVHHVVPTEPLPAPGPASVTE

| SMILES | IC50 (PRMT5/MEP50 complex) | IC50 [1] | inhibition at 1 µM [1] |
| --- | --- | --- | --- |
| CO/N=c1\nc[nH]c2c1ccn2[C@@H]1O[C@H]([C@H](O)c2ccc(C(F)(F)F)c(C)c2)[C@@H](O)[C@H]1O [Example 98, 7-((2R,3R,4S,5R)-3,4-dihydroxy-5-((R)-hydroxy(3-methyl-4-(trifluoromethyl)phenyl)methyl)tetrahydrofuran-2-yl)-1,7-dihydro-4H-pyrrolo[2,3-d]pyrimidin-4-one O-methyl oxime] | 0.0084 µM | 0.009 µM |  |
| CO/N=c1\nc[nH]c2c1ccn2[C@@H]1O[C@H]([C@H](OC)c2ccc(Cl)c(F)c2)[C@@H](O)[C@H]1O [Example 102, 7-((2R,3R,4S,5S)-5-((R)-(4-chloro-3-fluorophenyl)(methoxy)methyl)-3,4-dihydroxytetrahydrofuran-2-yl)-1,7-dihydro-4H-pyrrolo[2,3-d]pyrimidin-4-one O-methyl oxime] | 0.436 µM | 3.36 µM |  |
| CN/N=c1/nc[nH]c2c1ncn2[C@@H]1O[C@H]([C@H](O)c2ccc(Cl)cc2)[C@@H](O)[C@H]1O [compound 52, (2R,3S,4R,5R)-2-[(R)-(4-chlorophenyl)-hydroxy-methyl]-5-[6-(methylhydrazono)-3H-purin-9-yl]tetrahydrofuran-3,4-diol; 2,2,2-trifluoroacetic Acid] | 0.188 µM |  | 39% |
| O/N=c1/nc[nH]c2c1ncn2[C@@H]1O[C@H]([C@H](O)c2ccc(Cl)cc2)[C@@H](O)[C@H]1O [compound 54, 9-[(2R,3R,4S,5R)-5-[(R)-(4-chlorophenyl)-hydroxy-methyl]-3,4-dihydroxy-tetrahydrofuran-2-yl]-3H-purin-6-one oxime trifluoroacetic Acid Salt] | 0.0256 µM |  | 55% |
| C[C@@](O)(c1ccc(Cl)cc1)[C@H]1O[C@@H](n2ccc3/c(=N/O)nc[nH]c32)[C@H](O)[C@@H]1O [compound 59, 7-((2R,3R,4S)-5-((R)-1-(4-chlorophenyl)-1-hydroxyethyl)-3,4-dihydroxytetrahydrofuran-2-yl)-1,7-dihydro-4H-pyrrolo[2,3-d]pyrimidin-4-one oxime hydrochloride] | 0.0028 µM | 0.045 µM |  |
| CO/N=c1\nc[nH]c2c1ccn2[C@@H]1O[C@H]([C@](C)(O)c2ccc(Cl)cc2)[C@@H](O)[C@H]1O [compound 60, 7-((2R,3R,4S)-5-((R)-1-(4-chlorophenyl)-1-hydroxyethyl)-3,4-dihydroxytetrahydrofuran-2-yl)-1,7-dihydro-4H-pyrrolo[2,3-d]pyrimidin-4-one O-methyl oxime] | 0.0377 µM | 0.438 µM |  |
| O/N=c1/nc[nH]c2c1ccn2[C@@H]1O[C@H]([C@H](O)c2ccc(Cl)c(F)c2)[C@@H](O)[C@H]1O [compound 63, 7-((2R,3R,4S,5R)-5-((R)-(4-chloro-3-fluorophenyl)(hydroxy)methyl)-3,4-dihydroxytetrahydrofuran-2-yl)-1,7-dihydro-4H-pyrrolo[2,3-d]pyrimidin-4-one oxime] | 0.0007 µM | 0.0108 µM |  |
| CN/N=c1\nc[nH]c2c1ccn2[C@@H]1O[C@H]([C@H](O)c2ccc(Cl)cc2)[C@@H](O)[C@H]1O [compound 64, (2R,3S,4R,5R)-2-[(R)-(4-chlorophenyl)-hydroxy-methyl]-5-[4-(methylhydrazono)-1H-pyrrolo[2,3-d]pyrimidin-7-yl]tetrahydrofuran-3,4-diol hydrochloride] | 0.0083 µM | 0.093 µM |  |
| O/N=c1/nc[nH]c2c1ccn2[C@@H]1O[C@H]([C@H](O)c2ccc(F)c(Cl)c2)[C@@H](O)[C@H]1O [compound 65, 7-((2R,3R,4S,5R)-5-((R)-(3-chloro-4-fluorophenyl)(hydroxy)methyl)-3,4-dihydroxytetrahydrofuran-2-yl)-1,7-dihydro-4H-pyrrolo[2,3-d]pyrimidin-4-one oxime] | 0.0019 µM | 0.016 µM |  |
| O/N=c1\nc[nH]c2c1ccn2[C@@H]1O[C@H]([C@H](O)c2ccc(Cl)c(Cl)c2)[C@@H](O)[C@H]1O [compound 66, 7-((2R,3R,4S,5R)-5-((R)-(3,4-dichlorophenyl)(hydroxy)methyl)-3,4-dihydroxytetrahydrofuran-2-yl)-1,7-dihydro-4H-pyrrolo[2,3-d]pyrimidin-4-one oxime] | 0.0004 µM | 0.0018 µM |  |
| O/N=c1\nc[nH]c2c1ccn2[C@@H]1O[C@H]([C@H](O)c2ccc(F)c(F)c2)[C@@H](O)[C@H]1O [compound 67, 7-((2R,3R,4S,5R)-5-((R)-(3,4-difluorophenyl)(hydroxy)methyl)-3,4-dihydroxytetrahydrofuran-2-yl)-1,7-dihydro-4H-pyrrolo[2,3-d]pyrimidin-4-one oxime] | 0.0006 µM | 0.01 µM |  |
| CO/N=c1/nc[nH]c2c1ccn2[C@@H]1O[C@H]([C@H](O)c2ccc(F)c(Cl)c2)[C@@H](O)[C@H]1O [compound 68, 7-((2R,3R,4S,5R)-5-((R)-(3-chloro-4-fluorophenyl)(hydroxy)methyl)-3,4-dihydroxytetrahydrofuran-2-yl)-1,7-dihydro-4H-pyrrolo[2,3-d]pyrimidin-4-one O-methyl oxime] | 0.035 µM | 0.09 µM |  |
| Cc1n/c(=N\O)c2ccn([C@@H]3O[C@H]([C@H](O)c4ccc(Cl)cc4)[C@@H](O)[C@H]3O)c2[nH]1 [compound 71, 7-((2R,3R,4S,5R)-5-((R)-(4-chlorophenyl)(hydroxy)methyl)-3,4-dihydroxytetrahydrofuran-2-yl)-2-methyl-1,7-dihydro-4H-pyrrolo[2,3-d]pyrimidin-4-one oxime] | 0.0139 µM | 0.26 µM |  |
| O/N=c1/nc[nH]c2c1c(F)cn2[C@@H]1O[C@H]([C@H](O)c2ccc(Cl)cc2)[C@@H](O)[C@H]1O [compound 72, 7-((2R,3R,4S,5R)-5-((R)-(4-chlorophenyl)(hydroxy)methyl)-3,4-dihydroxytetrahydrofuran-2-yl)-5-fluoro-1,7-dihydro-4H-pyrrolo[2,3-d]pyrimidin-4-one oxime] | 0.0028 µM | 0.041 µM |  |
| N/N=c1/nc[nH]c2c1c(F)cn2[C@@H]1O[C@H]([C@H](O)c2ccc(Cl)cc2)[C@@H](O)[C@H]1O [compound 73, (2R,3S,4R,5R)-2-((R)-(4-chlorophenyl)(hydroxy)methyl)-5-(5-fluoro-4-hydrazineylidene-1,4-dihydro-7H-pyrrolo[2,3-d]pyrimidin-7-yl)tetrahydrofuran-3,4-diol] | 0.0097 µM | 0.313 µM |  |
| CO/N=c1/nc[nH]c2c1ccn2[C@@H]1O[C@H]([C@H](O)c2ccc(C(F)(F)F)c(F)c2)[C@@H](O)[C@H]1O [compound 78, 7-((2R,3R,4S,5R)-5-((R)-(3-fluoro-4-(trifluoromethyl)phenyl)(hydroxy)methyl)-3,4-dihydroxytetrahydrofuran-2-yl)-1,7-dihydro-4H-pyrrolo[2,3-d]pyrimidin-4-one O-methyl oxime] | 0.0031 µM | 0.033 µM |  |
| CO/N=c1/nc[nH]c2c1ccn2[C@@H]1O[C@H]([C@H](O)c2ccc(Cl)c(C)c2)[C@@H](O)[C@H]1O [compound 80, 7-((2R,3R,4S,5R)-5-((R)-(4-chloro-3-methylphenyl)(hydroxy)methyl)-3,4-dihydroxytetrahydrofuran-2-yl)-1,7-dihydro-4H-pyrrolo[2,3-d]pyrimidin-4-one O-methyl oxime] | 0.0007 µM | 0.018 µM |  |
| CN/N=c1\nc[nH]c2c1ccn2[C@@H]1O[C@H]([C@H](O)c2ccc(Cl)c(Cl)c2)[C@@H](O)[C@H]1O [compound 81, (2R,3S,4R,5R)-2-((R)-(3,4-dichlorophenyl)(hydroxy)methyl)-5-(4-(2-methylhydrazineylidene)-1,4-dihydro-7H-pyrrolo[2,3-d]pyrimidin-7-yl)tetrahydrofuran-3,4-diol] | 0.0003 µM | 0.009 µM |  |
